Data: patent US12390437B2, “Itaconic acid derivatives and uses thereof intreating an inflammatory disease or a disease associated with an undesirable immune response” (Sitryx Therapeutics Limited, priority 2019, dated 2025)
Like-named read-outs stand apart in the source and are kept apart here.

Legend:
[1] = Mouse pharmacokinetic study, intravenous dosing; type: in vivo; details: male, C57BL/6, mouse, iv, plasma, 10 mg/kg i.v., read-out: Parent compound concentration following intravenous administration
How it was run: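 Male C57BL/6 mice (6-8 weeks, fed ad libitum); IV tail-vein 10 mg/kg in 10% DMSO/25% HP-β-CD, sampled 3 min–8 h; oral gavage 100 mg/kg in 5% DMSO/0.5% HPMC+0.1% Tween 80, sampled 5 min–24 h. N=3/time point, semi-serial facial-vein bleeds into K2EDTA; plasma levels by LC-MS/MS.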

hepatocytes = assay: Hepatocyte stability assay (human); type: in vitro ADME; details: 10 μM compound, 0.5×10^6 cells/mL, 60 minutes
Excerpt: (§1) Defrosted cryo-preserved hepatocytes (viability >70%) are used to determine the metabolic stability of a compound via calculation of intrinsic clearance (Clint; a measure of the removal of a compound from the liver in the absence of blood flow and cell binding). Clearance data are particularly important for in vitro work as they can be used in combination with in vivo data to predict the half-life and oral bioavailability of a drug.
(§2) The metabolic stability in hepatocytes assay involves a time-dependent reaction using both positive and negative controls. The cells must be pre-incubated at 37° C. then spiked with test compound (and positive control); samples taken at pre-determined time intervals are analysed to monitor the change in concentration of the initial drug compound over 60 minutes. A buffer incubation reaction (with no hepatocytes present) acts as a negative control and two cocktail solutions, containing compounds with known high and low clearance values (verapamil/7-hydroxycoumarin and propranolol/diltiazem), act as positive controls. • 1. The assay is run with a cell concentration of 0.5×10^6 cells/mL in Leibovitz buffer. • 2. All compounds and controls are run in duplicate. • 3. Compound concentration is 10 μM. • 4. All compounds and controls are incubated with both cells and buffer to show turnover is due to hepatic metabolism. • 5. All wells on the incubation plate will have 326.7 μL of either cells or buffer added. • 6. Prior to assay, cell and buffer-only incubation plates are preincubated for 10 mins at 37° C. • 7. The assay is initiated by adding compounds, 3.3 μL of 1 mM in 10% DMSO-90% Buffer; final DMSO concentration is 0.1%. • 8. Samples are taken at regular timepoints (0, 5, 10, 20, 40, 60 min) until 60 mins. • 9. Sample volume is 40 μL and it is added to 160 μL of crash solvent (acetonitrile with internal standard) and stored on ice. • 10. At the end of the assay, the crash plates are centrifuged at 3500 rpm for 20 mins at 4° C. • 11. 80 μL of clear supernatant is removed and mixed with 80 μL of deionised water before being analysed by LC-MS/MS.
(§3) Raw LC-MS/MS data are exported to, and analysed in, Microsoft Excel for determination of intrinsic clearance. The percentage remaining of a compound is monitored using the peak area of the initial concentration as 100%. Intrinsic clearance and half-life values are calculated using a graph of the natural log of percentage remaining versus the time of reaction in minutes. Half-life (min) and intrinsic clearance (Clint in μL min^−1 10^−6 cells) values are calculated using the gradient of the graph (the elimination rate constant, k) and Equations 1 and 2.

[2] = Hepatocyte stability assay (human); type: in vitro ADME; details: cryopreserved hepatocytes, 10 μM compound, 0.5×10^6 cells/mL, 60 minutes, read-out: T½
Excerpt: as §1, §2, §3

NRF2 = NRF2 +/-GSH activation assay (DiscoverX PathHunter NRF2 translocation kit, U2OS cells); type: cell-based; details: Homo sapiens
How it was run: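 PathHunter U2OS cells, plated 24 hrs, measured NRF2 nuclear translocation by enzyme-fragment complementation luminescence after 6 hours compound exposure at 37 °C. For +GSH, compound was pre-incubated 30 minutes with GSH (6 mM working stock). EC50 from % activation normalised to dimethyl fumarate high control.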

[3] = U2OS, normalised to dimethyl fumarate 'High' control, GSH condition not stated in Table 5, read-out: NRF2 activation Emax
[4] = U2OS PathHunter cells, 6 hours, GSH condition not stated in Table 5, read-out: NRF2 activation EC50

Compound	concentration at 0.05 h [1] [ng/mL]	concentration at 0.133 h [1] [ng/mL]	concentration at 0.25 h [1] [ng/mL]	concentration at 0.5 h [1] [ng/mL]	concentration at 1 h [1] [ng/mL]	concentration at 2 h [1] [ng/mL]	concentration at 4 h [1] [ng/mL]	concentration at 6 h [1] [ng/mL]	concentration at 8 h [1] [ng/mL]	CIint (μL min^−1 10^−6 cells) (hepatocytes)	half-life at 10 μM [2] [min]	Emax (NRF2; [3]) [%]	EC50 (NRF2; [4]) [µM]	EC50 (NRF2; U2OS, Table 10, assay of Biological Example 5 (NRF2), read-out: EC50) [µM]	Emax (NRF2; U2OS, Table 10, assay of Biological Example 5 (NRF2), read-out: Emax) [%]
C=C(CC(=O)O[C@H](C)CCCCCC)C(=O)OCCC(=O)O [Example 88, (R)-3-((2-methylene-4-(octan-2-yloxy)-4-oxobutanoyl)oxy)propanoic acid]	42500	23500	12400	6250	2510	200	40	11	4.2	134	13	139	3.2		
C=C(CC(=O)O[C@@H](C)CCCCCC)C(=O)OCC(=O)O [Example 89, (S)-2-((2-methylene-4-(octan-2-yloxy)-4-oxobutanoyl)oxy)acetic acid]	27800	12400	7680	2300	430	65	6.8	< 4	< 4	29	49	238	22.4		
C=C(CC(=O)OC1CCCCCCC1)C(=O)OCC(=O)O [Example 90, 2-((4-(cyclooctyloxy)-2-methylene-4-oxobutanoyl)oxy)acetic acid]	19200	7160	2020	1600	89	3.6	2.8	1.7	1.2	8	183	157	29.4		
C=C(CC(=O)OCCCCCC)C(=O)OCC(=O)O [Example 94, 2-((4-(hexyloxy)-2-methylene-4-oxobutanoyl)oxy)acetic acid]	18000	6070	2440	550	42	1.9	1.4	< 0.8	< 0.8	16	85	193	22.2		
C=C(CC(=O)OC1CC2(CCC2)C1)C(=O)OCC(=O)O [Example 96, 2-((2-methylene-4-oxo-4-(spiro[3.3]heptan-2-yloxy)butanoyl)oxy)acetic acid]	15100	3590	659	169	6.4	3	< 0.8	< 0.8	< 0.8	11	126	180	21.2		
C=C(CC(=O)O[C@H](C)CCCCCC)C(=O)OCC(=O)O [Example 112, (R)-2-((2-methylene-4-(octan-2-yloxy)-4-oxobutanoyl)oxy)acetic acid]	63500	40100	36200	23500	13000	3540	1510	424	154	65	25	173	8.9	8.9	173
C=C(CC(=O)OC1CCCCC1)C(=O)OCc1nnn[nH]1 [Example 125, 1-((2H-tetrazol-5-yl)methyl) 4-cyclohexyl 2-methylenesuccinate]	11900	3870	1070	346	38	3	< 0.8	< 0.8	< 0.8	9	198	116	38.3		
C=C(CC(=O)O[C@@H](C)CCCCCC)C(=O)OCCc1nnn[nH]1 [Example 129, (S)-1-(2-(1H-tetrazol-5-yl)ethyl) 4-octan-2-yl 2-methylenesuccinate]	2920	872	309	96	7.7	< 1.6	< 1.6	< 1.6	< 1.6	55	108	178	5.8		
C=C(CC(=O)OC1CCCCCCC1)C(=O)OC(C)c1nnn[nH]1 (stereo not shown) [Example 133, 1-(1-(1H-tetrazol-5-yl)ethyl) 4-cyclooctyl 2-methylenesuccinate]	11000	4570	1950	315	33	< 8	< 8	< 8	< 8	48	30	227	33.3		
C=C(CC(=O)OC1CCCCCCC1)C(=O)OCc1nnn[nH]1 [Example 134, 1-((1H-tetrazol-5-yl)methyl) 4-cyclooctyl 2-methylenesuccinate]	31600	7760	2890	4300	74	12	11	1.4	1.7	27	53	183	20		
C=C(CC(=O)O[C@H](C)CCCCCC)C(=O)OCc1nn[nH]n1 [Example 161, (R)-1-((2H-tetrazol-5-yl)methyl) 4-(octan-2-yl) 2-methylenesuccinate]	8890	2380	846	343	90	5.1	< 4	< 4	< 4	55	22	146	5		
